Reference: patent US20240251792A1, “WEED CONTROL METHOD” (SYNGENTA CROP PROTECTION AG, priority 2021, published 2024)
Like-named read-outs stand apart in the source and are kept apart here.

Assays:
Type in all cases: in vivo
AMARE = assay: Pre-emergence biological efficacy (Table 3); settings: Amaranthus retroflexus, 312 h, 1000 g/ha, after 13 days, read-out: evaluation (100=total damage to plant; 0=no damage to plant)
Description: (§1) Seeds of weeds and/or crops were sown in standard soil in pots. After cultivation for one day under controlled conditions in a glasshouse (at 24/19° C., day/night; 16 hours light), the plants were sprayed with an aqueous spray solution derived from the formulation of the technical active ingredient in a small amount of acetone and a special solvent and emulsifier mixture referred to as AMA (11.12% Emulsogen EL360 TM+44.44% N-methylpyrrolidone+44.44% Dowanol DPM glycol ether), to create a 50 g/l solution which was then diluted using 0.2% Genapol X080 as diluent to give the desired final dose of test compound.
(§2) The test plants were then grown under controlled conditions in the glasshouse (at 24/18° C., day/night; 15 hours light; 50% humidity) and watered twice daily. After 13 days the test was evaluated (100=total damage to plant; 0=no damage to plant).

ZEAMX = assay: Pre-emergence biological efficacy (Table 3); settings: 312 h, 1000 g/ha, after 13 days, read-out: evaluation (100=total damage to plant; 0=no damage to plant)
Description: as §1, §2

IPOHE = assay: Pre-emergence biological efficacy (Table 3); settings: Ipomoea hederacea, 312 h, 1000 g/ha, after 13 days, read-out: evaluation (100=total damage to plant; 0=no damage to plant)
Description: as §1, §2

ECHCG = assay: Pre-emergence biological efficacy (Table 3); settings: Echinochloa crus-galli, 312 h, 1000 g/ha, after 13 days, read-out: evaluation (100=total damage to plant; 0=no damage to plant)
Description: as §1, §2

STEME = assay: Pre-emergence biological efficacy (Table 3); settings: 312 h, after 13 days, read-out: evaluation (100=total damage to plant; 0=no damage to plant)
Description: as §1, §2

ABUTH = assay: Pre-emergence biological efficacy (Table 3); settings: Abutilon theophrasti, 312 h, after 13 days, read-out: evaluation (100=total damage to plant; 0=no damage to plant)
Description: as §1, §2

weeds and/or crops = assay: Post-emergence biological efficacy (Table 4); settings: 312 h, 1000 g/ha, evaluated after 13 days
Description: as §1, with “14 days” for “one day”, “F50” for “AMA”
as §2

[1] = STEME, read-out: damage to plant STEME (100=total damage; 0=no damage)
[2] = ZEAMX, read-out: damage to plant ZEAMX (100=total damage; 0=no damage)
[3] = Abutilon theophrasti, ABUTH, read-out: damage to plant ABUTH (100=total damage; 0=no damage)
[4] = Amaranthus retroflexus, AMARE, read-out: damage to plant AMARE (100=total damage; 0=no damage)
[5] = Echinochloa crus-galli, ECHCG, read-out: damage to plant ECHCG (100=total damage; 0=no damage)
[6] = Ipomoea hederacea, IPOHE, read-out: damage to plant IPOHE (100=total damage; 0=no damage)

Row | Structure (SMILES) | pest or weed control at 1000 g/ha (AMARE) [%] | plant injury at 1000 g/ha (ZEAMX) [%] | pest or weed control at 1000 g/ha (IPOHE) [%] | pest or weed control at 1000 g/ha (ECHCG) [%] | pest or weed control at 1000 g/ha (STEME) [%] | pest or weed control at 1000 g/ha (ABUTH) [%] | pest or weed control at 1000 g/ha (weeds and/or crops; [1]) [%] | pest or weed control at 1000 g/ha (weeds and/or crops; [2]) [%] | pest or weed control at 1000 g/ha (weeds and/or crops; [3]) [%] | pest or weed control at 1000 g/ha (weeds and/or crops; [4]) [%] | pest or weed control at 1000 g/ha (weeds and/or crops; [5]) [%] | pest or weed control at 1000 g/ha (weeds and/or crops; [6]) [%]
1 | N#Cc1c(Cl)cccc1C(F)(F)C(=O)O [Compound 1-262, 2-(3-Chloro-2-cyano-phenyl)-2,2-difluoro-acetic acid] | 90 | 40 | 90 | 0 | 100 | 90 | 100 | 20 | 80 | 90 | 0 | 70
2 | COc1c(F)cccc1C(F)(F)C(=O)O [Compound 1-306, 2,2-Difluoro-2-(3-fluoro-2-methoxy-phenyl)acetic acid] | 30 | 0 | 60 | 10 | 10 | 20 | 0 | 10 | – | 70 | 0 | 60
3 | COc1c(F)ccc(F)c1C(F)(F)C(=O)O [Compound 1-314, 2-(3,6-Difluoro-2-methoxyphenyl)-2,2-difluoroacetic acid] | 0 | 0 | 0 | 0 | 0 | 0 | 0 | 10 | 0 | 60 | 0 | 10
4 | COc1c(Cl)cccc1C(F)(F)C(=O)O [Compound 1-317, 2-(3-chloro-2-methoxy-phenyl)-2,2-difluoro-acetic acid] | 90 | 70 | 90 | 90 | 100 | 100 | 100 | 60 | – | 100 | 60 | 90
5 | CSc1c(Cl)cccc1C(F)(F)C(=O)O [Compound 1-356, 2-(3-Chloro-2-(methylthio)phenyl)-2,2-difluoroacetic acid] | 50 | 10 | 50 | 0 | 30 | 30 | 70 | 10 | 60 | 40 | 0 | 70
6 | O=C(O)C(F)(F)c1cccc2c1OC(F)(F)O2 [Compound 1-385, 2-(2,2-Difluoro-1,3-benzodioxol-4-yl)-2,2-difluoro-acetic acid] | 60 | 50 | 70 | 50 | 50 | 90 | 100 | 40 | 90 | 90 | 50 | 70
7 | O=C(O)C(F)(F)c1c(Cl)ccc2c1OC(F)(F)O2 [Compound 1-389, 2-(5-Chloro-2,2-difluorobenzo[d][1,3]dioxol-4-yl)-2,2-difluoroaceticacid] | 60 | 10 | 60 | 10 | 60 | 50 | 50 | 0 | – | 80 | 10 | 70
8 | Cc1noc2cccc(C(F)(F)C(=O)O)c12 [Compound 1-391, 2,2-Difluoro-2-(3-methyl-1,2-benzoxazol-4-yl)acetic acid] | 70 | 10 | 60 | 40 | 20 | 40 | 50 | 10 | – | 70 | 30 | 80
9 | Cc1noc2ccc(Cl)c(C(F)(F)C(=O)O)c12 [Compound 1-395, 2-(5-Chloro-3-methyl-1,2-benzoxazol-4-yl)-2,2-difluoro-acetic acid] | 30 | 0 | 50 | 20 | 10 | 10 | 20 | 0 | 20 | 40 | 10 | 70
10 | Cc1ccc2onc(C)c2c1C(F)(F)C(=O)O [Compound 1-396, 2-(3,5-dimethylbenzo[d]isoxazol-4-yl)-2,2-difluoroacetic acid] | 0 | 30 | 0 | 0 | 0 | 0 | 0 | 10 | – | 10 | 0 | 60
11 | O=C(O)C(F)(F)c1c(Cl)ccc2ccccc12 [Compound 1-401, 2-(2-chloronaphthalen-1-yl)-2,2-difluoroacetic acid] | 80 | 0 | 50 | 30 | 80 | 60 | 80 | 10 | 80 | 70 | – | 80
12 | O=C(O)C(F)(F)c1c(F)ccc2cccnc12 [Compound 1-406, 2,2-Difluoro-2-(7-fluoro-8-quinolyl)acetic acid] | 80 | 10 | 60 | 0 | 50 | 60 | 70 | 40 | 70 | 80 | 20 | 80
13 | O=C(O)C(F)(F)c1c(Cl)ccc2cccnc12 [Compound 1-407, 2-(7-Chloroquinolin-8-yl)-2,2-difluoroacetic acid] | 60 | 40 | 60 | 50 | 10 | 70 | 30 | 0 | – | 70 | 0 | 80
